Results published in patent publication US7507421B2, “Hydroxycitric acid salt composition and method of making” (Unibar Corporation, priority 2002, dated 2009).

Key:
adult female Wistar rats [1] = assay: Acute Oral Toxicity (OECD Test Guideline 425), LD50; type: in vivo; parameters: key: X = Died; ◯ = Survived; conditions: dose 2000 mg/kg, single animal
[2] = Accelerated storage study of aqueous solution; type: physicochemical; conditions: 5 g in 100 ml de-ionized sterile water, accelerated storage study chamber, 2 months
Method: 50 g equivalent of the hydroxy citric acid—potassium salt solution from Example 2 was taken into a glass beaker fitted with a stirring arrangement. To this solution, 43 g of the dried calcium salt from Example 1 was added and the mixture was stirred to yield a clear solution. The resultant solution was spray dried to yield a salt of hydroxycitric acid with the following analysis: potassium content 11% to 18%, calcium content 5% to 12%, structural moisture 3% to 5% and hydroxycitric acid content 70% to 76%. The sodium content was less than 0.5% and lactone less than 0.5%. The combined salt has a solubility of 5 g in 100 mL of deionized water at room temperature. This salt composition is tasteless and white in color. A solution of 5 g in 100 ml of de-ionized sterile water was subjected to an accelerated storage study chamber for 2 months.

adult female Wistar rats [3] = assay: Acute Oral Toxicity (OECD Test Guideline 425), LD50; type: in vivo; parameters: key to Short-term Result / Long-term Result: X = Died; ◯ = Survived; conditions: for LD50: oral, female Wistar rats
Method: A representative lot of powder obtained as described above is a pure, stable calcium potassium salt of hydroxycitric acid having a proximate analysis of 70 to 75% hydroxycitric acid, 7.5% to 9.5% calcium, 12 to 15% potassium and 3 to 5% structural moisture. The sodium content is less than 0.5%, and HCA lactone content is less than 0.5%. An animal toxicity study was conducted on the product to establish its LD50.
Doses were selected in accordance with the Acute Oral Toxicity (OECD Test Guideline 425) Statistical Program as follows: 175, 550, 1750, 5000 mg/kg of body weight in adult female Wistar rats.

Solubility in water = type: physicochemical; conditions: deionized water at room temperature
Method: The resultant solution was spray dried to yield a salt of hydroxycitric acid with the following analysis: potassium content 11% to 18%, calcium content 5% to 12%, structural moisture 3% to 5% and hydroxycitric acid content 70% to 76%. The sodium content was less than 0.5% and lactone less than 0.5%. […] This salt composition is tasteless and white in color. A solution of 5 g in 100 ml of de-ionized sterile water was subjected to an accelerated storage study chamber for 2 months.

[4] = dose 5000 mg/kg, one line per animal

In the case of “Combined Potassium-Calcium Salts of Hydroxycitric Acid [Example 3]”, the “Long-term Result” value (adult female Wistar rats [1]) is reported as “◯”, the “Short-term Result” value (adult female Wistar rats [1]) is reported as “◯” and the “clarity of solution after storage” value [2] is reported as “retained its clarity”. The “precipitation of salt after storage of solution” value [2] was “did not precipitate out”, the “Died (long-term, number of animals)” value (adult female Wistar rats [3]; All Doses, total 6) was 0 and the “Survived (long-term, number of animals)” value (adult female Wistar rats [3]; All Doses, total 6) was 6. For the same substance, the “Long-term Result” value (adult female Wistar rats [3]; dose 175 mg/kg, single animal) was “◯”, the “Short-term Result” value (adult female Wistar rats [3]; dose 175 mg/kg, single animal) was “◯” and the “Died (long-term, number of animals)” value (adult female Wistar rats [3]; dose 175 mg/kg, total 1) was 0. The “Survived (long-term, number of animals)” value (adult female Wistar rats [3]; dose 175 mg/kg, total 1) was 1, the “Long-term Result” value (adult female Wistar rats [3]; dose 550 mg/kg, single animal) was “◯” and the “Short-term Result” value (adult female Wistar rats [3]; dose 550 mg/kg, single animal) was “◯”. For the same substance, the “Died (long-term, number of animals)” value (adult female Wistar rats [3]; dose 550 mg/kg, total 1) was 0, the “Survived (long-term, number of animals)” value (adult female Wistar rats [3]; dose 550 mg/kg, total 1) was 1 and the “Died (long-term, number of animals)” value (adult female Wistar rats [3]; dose 2000 mg/kg, total 1) was 0. The “Survived (long-term, number of animals)” value (adult female Wistar rats [3]; dose 2000 mg/kg, total 1) was 1, the “Long-term Result” value (adult female Wistar rats [3]; [4]) was “◯” and the “Short-term Result” value (adult female Wistar rats [3]; [4]) was “◯”. The “Died (long-term, number of animals)” value (adult female Wistar rats [3]; dose 5000 mg/kg, total 3) was 0, the “Survived (long-term, number of animals)” value (adult female Wistar rats [3]; dose 5000 mg/kg, total 3) was 3 and the LD50 (adult female Wistar rats [3]) was “more than 5 gm/kg”. The LD50 (adult female Wistar rats [3]; conclusion of Table 8) was “Conclusion: LD50 of a sample of the Test Compound was found to be greater than 5000 mg/kg” and the solubility (Solubility in water) was 5 g in 100 mL.
